Source: the supplement of paper PMC7046801
Counter-ions that a name gives are not always drawn.

How the values were obtained:
Conditions in all cases: 24 h
[1] = test system: NHEK immortalized keratinocytes
[2] = test system: NKTC primary neonatal keratinocytes
[3] = test system: NHEK immortalized keratinocytes; assay: IC50 cell viability (CellTiter-Glo)
[4] = test system: NKTC primary neonatal keratinocytes; assay: IC50 cell viability (CellTiter-Glo)

SMILES | IC50 cell viability (WST-8) [1] [µM] | IC50 cell viability (WST-8) [2] [µM] | IC50 cell viability [3] [µM] | IC50 cell viability [4] [µM]
CN(C)c1ccc(C(=C2C=CC(=[N+](C)C)C=C2)c2ccc(N(C)C)cc2)cc1 [Methylrosaniline chloride] | 1.51 | 42.8 | 1.99 | 41.5
O=c1[nH]sc2ccccc12 [1,2-Benzisothiazolin-3-one] | 1.68 | 21.4 | 1.26 | 16
CCN(CC)c1ccc(C(=C2C=CC(=[N+](CC)CC)C=C2)c2ccc(S(=O)(=O)O)cc2S(=O)(=O)[O-])cc1 [Sulfan blue] |  |  | 41.3 | 
CN=C1C=CC(=C(c2ccc(N(C)C)cc2)c2ccc(N(C)C)cc2)C=C1 [Methyl Violet] | 0.51 |  | 0.64 | 
N#CCCC(Br)(C#N)CBr (centres undefined) [1,2-Dibromo-2,4-dicyanobutane] | > 88 | > 88 | 60.4 | 77.7
CNc1ccc(O)cc1 [p-Methylaminophenol sulfate] | 8.53 | 13.9 | 6.78 | 24.3
C=CC(=O)OCC(CC)(COC(=O)C=C)COC(=O)C=C [Trimethylolpropane triacrylate] | 24.9 | 24.9 | 24.9 | 20.6
CC1=CC(=C(c2ccc(N)cc2)c2ccc(N)cc2)C=CC1=N [C.I. Basic Violet 14] |  |  | 1.16 | 
Oc1ccc(O)cc1 [Hydroquinone] |  |  | 39.1 | 
N#CC(Cl)(Cl)Cl [Trichloroacetonitrile] | 1.2 | 6.07 | 0.8 | 5.34
O=CCCCC=O [Glutaraldehyde] | 24.4 | > 88 | 20.2 | > 88
O=C1OC2(c3cc(Br)c(O)c(Br)c3Oc3c2cc(Br)c(O)c3Br)c2c(Cl)c(Cl)c(Cl)c(Cl)c21 [D&C Red 27] |  | 22.3 | 44.9 | 28.1
O=CCc1ccccc1 [Phenylacetaldehyde] | > 88 |  | > 88 | 
C=CC(=O)OCCCCCCCC(C)C [Isodecyl acrylate] | 1.54 |  | 3.55 | 
CC(C)(C)c1cc(O)ccc1O [tert-Butylhydroquinone] | > 88 |  | 77.7 | 58.1
CC(=O)N1CCN(c2ccc(OCC3COC(Cn4ccnc4)(c4ccc(Cl)cc4Cl)O3)cc2)CC1 (centres undefined) [Ketoconazole] | 14 |  | 26.4 | 
Oc1cc(Cl)ccc1Oc1ccc(Cl)cc1Cl [Triclosan] | > 88 | 87.4 | 55.1 | > 88
O=[N+]([O-])C(Br)(CO)CO [Bronopol] | 24.9 | 53.8 | 24.1 | 73.2
Cc1c2ccccc2c(C)c2c1ccc1ccccc12 [7,12-Dimethylbenz(a)anthracene] | 46.2 | 46.2 | 46.2 | 46.2
Oc1c(Cl)c(Cl)c(Cl)c(Cl)c1Cl [Pentachlorophenol] | 0.12 | 1.18 | 0.51 | 4.23
C=C/C=C\CC1=C(C)[C@@H](OC(=O)[C@@H]2[C@@H](/C=C(\C)C(=O)OC)C2(C)C)CC1=O.C=C/C=C\CC1=C(C)[C@@H](OC(=O)[C@@H]2[C@@H](C=C(C)C)C2(C)C)CC1=O [Pyrethrins] | 34.8 |  |  | 
C=C1CC[C@H](O)C/C1=C/C=C1\CCC[C@]2(C)[C@@H]([C@H](C)CCCC(C)C)CC[C@@H]12 [Vitamin D3] | 12.7 |  | 13.7 | 
COc1ccc(C(C)=O)cc1 [4'-Methoxyacetophenone] | 53.4 |  | 55.5 | 
CC(C)(c1ccc(OCC2CO2)cc1)c1ccc(OCC2CO2)cc1 (centres undefined) [Bisphenol A diglycidyl ether] | 43.7 | 65.2 | 39.1 | 71.2
COC(C)(C)CCC[C@H](C)C/C=C/C(C)=C/C(=O)OC(C)C [S-Methoprene] | 82.5 |  | 82.5 | 

SMILES | IC50 cell viability (WST-8) [1] [µM] | IC50 cell viability (WST-8) [2] [µM] | IC50 cell viability [3] [µM] | IC50 cell viability [4] [µM]
CCCCCCCCCCCC[N+](C)(C)Cc1ccccc1 [Benzyldimethyldodecylammonium chloride] | 3.36 | 22.2 | 2.91 | 43.1
CC1(C)CNC(=NN=C(/C=C/c2ccc(C(F)(F)F)cc2)/C=C/c2ccc(C(F)(F)F)cc2)NC1 [Hydramethylnon] | 27 | 51.3 | 17 | 38.9
CC(=O)[O][Hg][c]1ccccc1 [Phenylmercuric acetate] | 0.01 | 0.38 | 0.06 | 0.37
[K+].[K+].[O]=[Cr](=[O])([O-])[O][Cr](=[O])(=[O])[O-] [Potassium dichromate] | 1.97 | 2.3 | 1.66 | 2.53
CCCCN(CCC(=O)OCC)C(C)=O [Ethyl 3-(N-butylacetamido)propionate] |  |  | 21 | 
Cn1sccc1=O [2-Methyl-4-isothiazolin-3-one hydrochloride] | 32.2 |  | 39.9 | 
CCCCCCCCCCCCN1CCCC1=O [1-Dodecyl-2-pyrrolidinone] | 15.8 |  | 18.4 | 29.1
CCCCCCCCCCCCCCCCOCCOCCOCCOCCOCCOCCOCCOCCOCCOCCOCCOCCOCCOCCOCCOCCOCCOCCOCCOCCO [Polyethylene glycol (20) hexadecyl ether] | 13.3 |  |  | 
Cc1ccc(/C=C2/C(=O)C3(C)CCC2C3(C)C)cc1 (centres undefined) [Enzacamene] | > 88 | > 88 | 71.3 | 71.6
O=c1c(-c2ccccc2)c1-c1ccccc1 [Diphenylcyclopropenone] | 36.6 | 5.47 | 30.8 | 5.69
O=C(Nc1ccc(Cl)cc1)Nc1ccc(Cl)c(Cl)c1 [Triclocarban] | 2.31 |  | 2.7 | 6.78
CC(=O)OCC(C)OC(C)=O (centres undefined) [Propylene glycol diacetate] | 27.7 |  | 35.7 | 
O=C1C=CC(=C(c2ccc(O)cc2)c2ccccc2S(=O)(=O)O)C=C1 [Phenol Red sodium salt] |  |  | 79.9 | 
CCCCCCCCCCCCOC(=O)c1cc(O)c(O)c(O)c1 [Dodecyl gallate] | 23.5 |  | 21 | 
CCCCCCCCCCCCc1ccc(S(=O)(=O)O)cc1 [Dodecylbenzenesulfonic acid] | 29.5 | 23 | 25.8 | 29.9
Oc1c(Cl)cc(Cl)c(Cl)c1Cc1c(O)c(Cl)cc(Cl)c1Cl [Hexachlorophene] | 0.37 | 2.28 | 0.39 | 18.8
CCCCCCCCCCCC(=O)O [Dodecanoic acid] | 58.1 | > 88 | 58.1 | > 88
O=C(c1ccccc1)c1ccc(O)cc1O [2,4-Dihydroxybenzophenone] | 44.4 |  | 58.1 | 
O=[N+]([O-])c1ccc(Cl)c([N+](=O)[O-])c1 [1-Chloro-2,4-dinitrobenzene] | 4.76 | 9.18 | 5.43 | 9.18
CC(C)(C)C(=O)C(Oc1ccc(Cl)cc1)n1ccnc1 (centres undefined) [Climbazole] |  |  | 0.42 | 
CCN(CC)c1ccc2c(-c3ccccc3C(=O)O)c3ccc(=[N+](CC)CC)cc-3oc2c1 [Rhodamine B] |  |  | 42.8 | 
C[C@H](O)CCO [1,3-Butanediol] | 5.52 |  | 13.5 | 
C=CC(=O)OCCO [2-Hydroxyethyl acrylate] | 17.4 |  | 35.1 | 
CCCCNC(=O)OCC#CI [3-Iodo-2-propynyl-N-butylcarbamate] | > 88 |  | 76.7 | 
CCCCC(CC)COC(=O)C(C#N)=C(c1ccccc1)c1ccccc1 (centres undefined) [Octocrylene] | 9.8 |  | 16.6 | 
